From publication PMC7468568 (Nature chemical biology, 2020)
Values after ≈ are worked out from the molar mass of the structure shown.

How the values were obtained:
[1] = biological target: cannabinoid CB1 receptor (Homo sapiens, UniProt P21554); experiment: [3H]CP55940 radioligand displacement assay CB1; assay type: binding; settings: at 10 μM
[2] = biological target: cannabinoid CB2 receptor (Homo sapiens, UniProt P34972); experiment: [3H]CP55940 radioligand displacement assay CB2; assay type: binding; settings: at 10 μM
Sequence of cannabinoid CB2 receptor (P34972 whole entry): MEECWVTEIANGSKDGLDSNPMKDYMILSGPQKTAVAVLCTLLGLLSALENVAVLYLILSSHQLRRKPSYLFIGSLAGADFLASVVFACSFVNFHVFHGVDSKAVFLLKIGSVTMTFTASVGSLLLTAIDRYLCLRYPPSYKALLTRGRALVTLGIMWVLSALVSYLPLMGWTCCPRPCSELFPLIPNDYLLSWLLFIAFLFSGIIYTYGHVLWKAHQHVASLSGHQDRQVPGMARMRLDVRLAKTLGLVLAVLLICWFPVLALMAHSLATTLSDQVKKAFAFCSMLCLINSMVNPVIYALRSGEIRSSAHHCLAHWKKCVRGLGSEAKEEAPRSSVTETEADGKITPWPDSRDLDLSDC

[3] = biological target: T1, FAAH (Mus musculus, UniProt O08914); experiment: Gel-based ABPP, mouse brain membrane proteome; assay type: biochemical; settings: at 10 μM
T1 sequence (O08914 1-579): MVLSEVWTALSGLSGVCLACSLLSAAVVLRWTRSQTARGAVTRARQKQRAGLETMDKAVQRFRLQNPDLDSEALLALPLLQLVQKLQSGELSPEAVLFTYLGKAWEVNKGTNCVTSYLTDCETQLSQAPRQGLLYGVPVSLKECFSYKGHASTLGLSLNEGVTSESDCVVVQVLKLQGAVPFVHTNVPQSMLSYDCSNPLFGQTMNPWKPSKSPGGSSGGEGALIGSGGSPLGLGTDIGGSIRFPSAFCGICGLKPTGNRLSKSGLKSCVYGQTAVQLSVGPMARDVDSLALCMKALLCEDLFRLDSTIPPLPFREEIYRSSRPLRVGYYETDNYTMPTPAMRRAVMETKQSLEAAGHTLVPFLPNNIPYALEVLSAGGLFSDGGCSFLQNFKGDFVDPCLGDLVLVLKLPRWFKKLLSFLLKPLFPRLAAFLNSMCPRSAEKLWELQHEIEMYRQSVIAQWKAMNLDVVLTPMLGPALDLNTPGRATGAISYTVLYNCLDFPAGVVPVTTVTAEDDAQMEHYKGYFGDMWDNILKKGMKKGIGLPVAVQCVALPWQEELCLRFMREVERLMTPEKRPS

[4] = system: DAGLα; experiment: Natural substrate-based fluorescence assay DAGLα; assay type: biochemical, human and mouse
[5] = biological target: T2, mDAGLβ (Mus musculus, UniProt Q91WC9); experiment: Surrogate substrate-based fluorescence assay DAGLβ; assay type: biochemical
T2 sequence (Q91WC9 1-669): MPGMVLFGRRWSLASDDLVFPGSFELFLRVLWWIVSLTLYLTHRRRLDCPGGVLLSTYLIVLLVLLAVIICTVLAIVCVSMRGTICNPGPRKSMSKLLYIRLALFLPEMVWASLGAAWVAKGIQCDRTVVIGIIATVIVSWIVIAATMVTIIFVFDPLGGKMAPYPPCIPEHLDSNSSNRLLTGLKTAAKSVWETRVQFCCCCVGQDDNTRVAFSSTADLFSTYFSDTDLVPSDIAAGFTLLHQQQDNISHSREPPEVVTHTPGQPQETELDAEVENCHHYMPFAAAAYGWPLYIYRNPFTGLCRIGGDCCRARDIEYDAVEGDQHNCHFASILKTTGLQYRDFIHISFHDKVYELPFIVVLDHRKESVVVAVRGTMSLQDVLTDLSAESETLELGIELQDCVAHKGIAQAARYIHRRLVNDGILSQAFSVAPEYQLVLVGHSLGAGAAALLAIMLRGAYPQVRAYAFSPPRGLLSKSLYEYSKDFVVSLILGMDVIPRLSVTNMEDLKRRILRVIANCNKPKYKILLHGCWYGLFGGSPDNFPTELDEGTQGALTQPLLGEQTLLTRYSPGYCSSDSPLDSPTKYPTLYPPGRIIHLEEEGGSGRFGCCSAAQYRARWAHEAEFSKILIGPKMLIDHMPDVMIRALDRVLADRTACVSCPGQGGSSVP

[6] = biological target: T3, human MAGL (Homo sapiens, UniProt Q99685); experiment: Natural substrate-based fluorescence assay MAGL; assay type: biochemical
T3 sequence (Q99685 1-303): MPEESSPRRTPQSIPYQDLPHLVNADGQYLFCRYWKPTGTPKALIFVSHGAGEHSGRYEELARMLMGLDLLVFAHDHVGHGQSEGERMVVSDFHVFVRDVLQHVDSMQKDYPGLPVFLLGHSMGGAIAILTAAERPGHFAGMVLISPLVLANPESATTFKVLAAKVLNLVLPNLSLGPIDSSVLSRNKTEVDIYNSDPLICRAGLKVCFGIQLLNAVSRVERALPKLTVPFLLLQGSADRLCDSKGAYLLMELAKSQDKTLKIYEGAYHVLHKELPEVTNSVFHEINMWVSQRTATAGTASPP

[7] = system: Neuro-2a cells; experiment: Targeted lipidomics in Neuro-2a cells; assay type: cell-based, mouse; settings: 10 μM, 2 h
[8] = system: Neuro-2a cells; experiment: Live cell count with trypan blue; assay type: cell-based, mouse; settings: 10 μM, 2 h
[9] = logD-assay; assay type: physicochemical; settings: octanol/water
[10] = Kinetic aqueous solubility; assay type: physicochemical; settings: phosphate buffer pH 6.5
[11] = Microsomal clearance, mouse; assay type: in vitro ADME; settings: 1 μM
[12] = Hepatocyte clearance, human; assay type: in vitro ADME; settings: 1 μM
[13] = Hepatocyte clearance, mouse; assay type: in vitro ADME; settings: 1 μM
[14] = Plasma protein binding, mouse; assay type: in vitro ADME; settings: equilibrium dialysis
[15] = biological target: human PGP-transporter (Homo sapiens, UniProt P08183); experiment: P-glycoprotein active efflux assay, human; assay type: in vitro ADME
Sequence of human PGP-transporter (P08183 whole entry): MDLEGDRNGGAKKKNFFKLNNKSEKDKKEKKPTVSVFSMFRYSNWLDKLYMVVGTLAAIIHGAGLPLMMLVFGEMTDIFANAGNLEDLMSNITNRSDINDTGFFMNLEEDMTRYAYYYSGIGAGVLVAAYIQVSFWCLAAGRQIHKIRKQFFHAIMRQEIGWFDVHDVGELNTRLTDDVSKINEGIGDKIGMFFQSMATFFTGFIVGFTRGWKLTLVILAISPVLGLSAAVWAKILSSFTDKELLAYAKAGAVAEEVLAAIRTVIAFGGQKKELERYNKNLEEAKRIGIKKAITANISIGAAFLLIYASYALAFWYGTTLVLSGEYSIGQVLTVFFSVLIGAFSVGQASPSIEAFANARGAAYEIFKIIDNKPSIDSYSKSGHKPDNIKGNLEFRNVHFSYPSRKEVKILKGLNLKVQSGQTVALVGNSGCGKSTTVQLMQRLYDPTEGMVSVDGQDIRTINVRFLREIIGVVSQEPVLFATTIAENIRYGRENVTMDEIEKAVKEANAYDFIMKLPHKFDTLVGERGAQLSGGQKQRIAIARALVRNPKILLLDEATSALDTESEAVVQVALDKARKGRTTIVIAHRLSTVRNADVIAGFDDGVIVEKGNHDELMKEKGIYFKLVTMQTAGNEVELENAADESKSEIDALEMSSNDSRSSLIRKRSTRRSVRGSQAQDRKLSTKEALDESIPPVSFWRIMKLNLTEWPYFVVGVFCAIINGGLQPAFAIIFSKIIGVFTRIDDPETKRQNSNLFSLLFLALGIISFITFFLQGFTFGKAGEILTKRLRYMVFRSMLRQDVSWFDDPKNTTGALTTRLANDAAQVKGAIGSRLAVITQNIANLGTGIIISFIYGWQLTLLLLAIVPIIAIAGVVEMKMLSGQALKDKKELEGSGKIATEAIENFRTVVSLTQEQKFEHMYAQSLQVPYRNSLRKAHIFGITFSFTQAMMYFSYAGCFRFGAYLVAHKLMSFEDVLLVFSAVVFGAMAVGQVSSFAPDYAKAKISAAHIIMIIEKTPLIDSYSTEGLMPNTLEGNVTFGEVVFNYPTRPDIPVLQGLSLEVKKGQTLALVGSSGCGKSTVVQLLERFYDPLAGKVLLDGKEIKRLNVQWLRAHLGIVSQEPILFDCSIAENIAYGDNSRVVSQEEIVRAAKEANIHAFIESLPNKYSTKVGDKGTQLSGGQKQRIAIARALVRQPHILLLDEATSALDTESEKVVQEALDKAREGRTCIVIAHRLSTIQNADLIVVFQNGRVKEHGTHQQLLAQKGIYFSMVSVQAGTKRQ

[16] = biological target: mouse PGP-transporter (Mus musculus, UniProt P21447); experiment: P-glycoprotein active efflux assay, mouse; assay type: in vitro ADME
Sequence of mouse PGP-transporter (P21447 whole entry): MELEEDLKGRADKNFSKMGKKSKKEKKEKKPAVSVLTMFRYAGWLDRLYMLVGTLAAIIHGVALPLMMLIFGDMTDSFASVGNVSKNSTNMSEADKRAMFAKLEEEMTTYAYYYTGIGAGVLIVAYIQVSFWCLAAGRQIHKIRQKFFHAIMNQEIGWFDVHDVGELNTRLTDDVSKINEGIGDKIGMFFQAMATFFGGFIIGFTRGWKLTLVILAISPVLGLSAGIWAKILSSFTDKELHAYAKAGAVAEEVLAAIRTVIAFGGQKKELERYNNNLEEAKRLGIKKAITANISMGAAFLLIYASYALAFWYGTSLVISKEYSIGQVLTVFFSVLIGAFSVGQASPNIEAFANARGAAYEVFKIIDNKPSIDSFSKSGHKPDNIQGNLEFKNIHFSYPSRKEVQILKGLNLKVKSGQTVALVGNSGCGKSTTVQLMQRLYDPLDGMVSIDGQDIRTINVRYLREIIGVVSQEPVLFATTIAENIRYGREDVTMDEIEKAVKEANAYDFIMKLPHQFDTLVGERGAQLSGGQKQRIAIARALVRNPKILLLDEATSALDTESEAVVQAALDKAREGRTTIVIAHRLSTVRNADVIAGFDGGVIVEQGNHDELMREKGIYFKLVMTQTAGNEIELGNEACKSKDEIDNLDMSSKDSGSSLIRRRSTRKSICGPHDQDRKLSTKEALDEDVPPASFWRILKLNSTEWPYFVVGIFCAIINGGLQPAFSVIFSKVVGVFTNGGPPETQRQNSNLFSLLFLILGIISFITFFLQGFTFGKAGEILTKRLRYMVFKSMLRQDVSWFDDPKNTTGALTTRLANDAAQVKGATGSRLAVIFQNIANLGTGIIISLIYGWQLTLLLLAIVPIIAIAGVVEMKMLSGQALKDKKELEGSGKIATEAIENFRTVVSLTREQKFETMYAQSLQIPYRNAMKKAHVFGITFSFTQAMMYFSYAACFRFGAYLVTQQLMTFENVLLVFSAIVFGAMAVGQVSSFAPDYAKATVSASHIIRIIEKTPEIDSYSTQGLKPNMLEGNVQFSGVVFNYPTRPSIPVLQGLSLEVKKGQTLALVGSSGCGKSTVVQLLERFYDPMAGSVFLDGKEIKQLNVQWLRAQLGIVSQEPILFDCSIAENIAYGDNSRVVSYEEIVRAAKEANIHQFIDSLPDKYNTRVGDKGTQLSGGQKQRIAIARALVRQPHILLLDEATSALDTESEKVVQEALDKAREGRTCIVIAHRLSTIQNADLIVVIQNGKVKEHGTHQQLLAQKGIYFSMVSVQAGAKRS

[17] = system: DAGLα/β, MAGL and ABHD6; experiment: In vitro ABPP of brain of LEI-401-treated mice; assay type: in vivo, mouse; settings: male C57BL/6J mice; 30 mg kg^−1 i.p.; 2 h; ABPP of brain membrane lysate

Sequence of cannabinoid CB1 receptor (P21554 whole entry): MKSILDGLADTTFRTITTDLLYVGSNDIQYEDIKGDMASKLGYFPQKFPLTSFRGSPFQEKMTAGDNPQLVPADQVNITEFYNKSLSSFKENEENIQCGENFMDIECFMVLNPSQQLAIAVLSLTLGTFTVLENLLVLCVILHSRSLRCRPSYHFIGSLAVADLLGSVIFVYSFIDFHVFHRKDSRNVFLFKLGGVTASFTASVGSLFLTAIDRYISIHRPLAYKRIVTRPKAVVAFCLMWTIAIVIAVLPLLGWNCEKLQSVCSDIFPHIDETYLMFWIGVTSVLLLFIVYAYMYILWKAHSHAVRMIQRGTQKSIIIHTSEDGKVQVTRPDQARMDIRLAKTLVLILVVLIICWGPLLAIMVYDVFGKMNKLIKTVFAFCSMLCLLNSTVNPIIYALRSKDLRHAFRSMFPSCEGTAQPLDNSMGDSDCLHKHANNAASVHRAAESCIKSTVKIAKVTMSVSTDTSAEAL

O=C(NCC1CC1)c1cc(N2CC[C@H](O)C2)nc(N2CCC[C@@H](c3ccccc3)C2)n1 [LEI-401]
inhibitory activity, cannabinoid receptor type 1 [1]: No inhibitory activities | inhibitory activity, cannabinoid receptor type 2 [2]: No inhibitory activities | inhibitory activity, FAAH [3]: No inhibitory activities | inhibition of DAGLα [4]: did not inhibit | inhibition of DAGLβ [5]: did not inhibit | inhibition of MAGL [6]: did not inhibit | anandamide level ([7]; Neuro-2a NAPE-PLD KO cells): not in NAPE-PLD KO cells | anandamide level ([7]; Neuro-2a WT cells): twofold reduction | other saturated, mono- and (ω−6)-polyunsaturated NAE levels ([7]; Neuro-2a WT cells): twofold decrease | (ω−3)-polyunsaturated EPEA and DHEA levels ([7]; Neuro-2a cells): did not respond | cell viability [8]: did not show any sign of reduced cell viability | logD [9]: 3.3 | aqueous solubility [10]: 1.7 µg/mL (≈ 4.03 µM) | clearance in mouse microsomes [11]: 42 μl min^−1 mg^−1 protein | clearance in human hepatocytes [12]: 6.9 μl min^−1 per 10^6 cells | clearance in mouse hepatocytes [13]: 28.8 μl min^−1 per 10^6 cells | mouse protein binding [14]: > 99.8% | efflux ratio, human PGP-transporter [15]: 1.7 | efflux ratio, mouse PGP-transporter [16]: 1.8 | activity of DAGLα/β, MAGL and ABHD6 in the brain [17]: not affected
